According to US20240109897A1, “MODULATORS OF FPR1 AND METHODS OF USING THE SAME” (BEIJING TIANTAN HOSPITAL, priority 2021, published 2024):

Each molecule was assayed against T1, FPR1 (UniProt P21462) (assay: fMLP-FPR1 mediated calcium signaling assay in FPR1-overexpressing 293T cells). Details: inhibition of fMLP-FPR1 mediated intracellular calcium change; hFPR1 or mFPR1 overexpressing 293T cells; 10 min preincubation; INDO-1 AM, FACS.
T1 sequence (P21462 1-350): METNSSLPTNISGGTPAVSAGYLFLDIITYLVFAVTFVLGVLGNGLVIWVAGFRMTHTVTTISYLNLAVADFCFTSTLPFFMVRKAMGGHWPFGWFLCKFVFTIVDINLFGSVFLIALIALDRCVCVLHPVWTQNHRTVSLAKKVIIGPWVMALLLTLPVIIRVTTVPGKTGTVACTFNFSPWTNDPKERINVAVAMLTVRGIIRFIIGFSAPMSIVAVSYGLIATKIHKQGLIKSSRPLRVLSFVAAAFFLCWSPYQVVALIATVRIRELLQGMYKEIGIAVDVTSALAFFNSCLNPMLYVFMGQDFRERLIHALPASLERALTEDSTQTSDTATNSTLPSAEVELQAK
Assay type: cell-based, human or mouse
Protocol: The effects of the compounds of this disclosure on regulating the FPR1-mediated cell signaling were measured by monitoring the cellular calcium level change, as illustrated by the exemplary examples in Table 2. The dose response of the illustrated examples are reported categorically using the following ranking criteria: *** (IC50≤100 nM); ** (IC50≥100 to ≤1000 nM); * (IC50≥1000 to ≤10,000 nM); N.D.—not detected.
The coding DNA sequence (CDS) of human FPR1 (NM_001193306) and mouse FPR1 (NM_013521) were cloned and inserted to the lentivirus vector GV367 (Vector information:http://www.genechem.com.cn/index/supports/tool_search.html?keywords=GV367) under the conduction of pCMV promoter. 293T cells were cultured in H-DMEM supplemented with 10% FBS and 1% penicillin-streptomycin (PS) at 37° C. in 5% CO2 Incubator. 293T cells were transfected with lentivirus vector GV367 containing the CDS of human or mouse FPR1 for 24 h and then cultured with complete medium for another 48 h. At 72 h after transfected, cells were passaged, and 5 μg/ml puromycin was added to screen FPR1-transfected 293T cells. The overexpression of human or mouse FPR1 in 293 T cells were detected by immunostaining with anti-mouse or human FPR1 antibodies (Biolegend or Antibody Online).
Cultured hFPR1 or mFPR1 overexpressing 293T cells were labeled with 1 μM INDO-1 AM calcium sensor dye (eBioscience) for 30 min at 37° C. After washed with 1×PBS, cells were resuspended with H-DMEM containing 3% FBS, and were maintained on ice prior to the measurement of intracellular calcium concentration. To measure the inhibitory potency of designed potential FPR1 antagonists, hFPR1 or mFPR1 overexpressing 293T cells were incubated with the compound for 10 min at room temperature. The cytoplasmic calcium levels were then measured by FACS Aria III at 37° C. prior to and after the stimulation of fMLP. We defined the immunofluorescence intensity of indo-1 AM before adding fMLP as the basal value, and the intensity at the peak immunofluorescence reduction after adding fMLP as minimum value for each sample. The change of intracellular calcium was calculated as follow: (basal value−minimum value)/basal value×100%. The IC50 of each compound in inhibiting fMLP-FPR1 mediated intracellular calcium concentration in 293T cells were automatically calculated with Prism 8.0.2 software (GraphPad) after inputting a series of change of intracellular calcium at multiple concentration gradients (from 0 nM to 100 μM).

SMILES	IC50
Cc1ccc(O)c(-c2[nH]nc3c2C(c2ccc(C(F)(F)F)cc2)N(C2CCNCC2)C3=O)c1 (racemic) [Compound 4, Rac-3-(2-hydroxy-5-methylphenyl)-5-(piperidin-4-yl)-4-(4-(trifluoromethyl)phenyl)-4,5-dihydropyrrolo[3,4-c]pyrazol-6(2H)-one]	1000 to 10000 nM
COC1CCC(N2C(=O)c3n[nH]c(-c4cc(C)ccc4O)c3C2c2ccc(C(F)(F)F)cc2)CC1 (racemic) [Compound 8, Rac-3-(2-hydroxy-5-methylphenyl)-5-((1r,4r)-4-methoxycyclohexyl)-4-(4-(trifluoromethyl)phenyl)-4,5-dihydropyrrolo[3,4-c]pyrazol-6(2H)-one]	1000 to 10000 nM
O=C1c2n[nH]c(-c3cc(F)ccc3O)c2[C@@H](c2ccc(Cl)cc2)N1C1CCOCC1 (single isomer, unassigned) [Compound 12]	1000 to 10000 nM
O=C1c2n[nH]c(-c3ccccn3)c2C(c2ccc(Cl)cc2)N1C1CCOCC1 (racemic) [Compound 14, Rac-4-(4-chlorophenyl)-3-(pyridin-2-yl)-5-(tetrahydro-2H-pyran-4-yl)-4,5-dihydropyrrolo[3,4-c]pyrazol-6(2H)-one]	1000 to 10000 nM
O=C1c2n[nH]c(-c3cc(Cl)ccc3O)c2C(c2ccc(C(F)(F)F)cc2)N1C1CCOCC1 (racemic) [Compound 9, Rac-3-(5-chloro-2-hydroxyphenyl)-5-(tetrahydro-2H-pyran-4-yl)-4-(4-(trifluoromethyl)phenyl)-4,5-dihydropyrrolo[3,4-c]pyrazol-6(2H)-one]	100 to 1000 nM
CO[C@H]1CC[C@@H](N2C(=O)c3n[nH]c(-c4cc(C)ccc4O)c3C2c2ccc(C(F)(F)F)cc2)CC1 (mixture of isomers) [Compound 7, rac-3-(2-hydroxy-5-methylphenyl)-5-((1S,4S)-4-methoxycyclohexyl)-4-(4-(trifluoromethyl)phenyl)-4,5-dihydropyrrolo[3,4-c]pyrazol-6(2H)-one]	1000 to 10000 nM
Cc1ccc(O)c(-c2[nH]nc3c2[C@H](c2ccc(C(F)(F)F)cc2)N(C2CCOCC2)C3=O)c1 (single isomer, unassigned) [Compound 2]	100 to 1000 nM
Cc1ccc(O)c(-c2[nH]nc3c2[C@@H](c2ccc(C(F)(F)F)cc2)N(C2CCOCC2)C3=O)c1 (single isomer, unassigned) [Compound 3]	1000 to 10000 nM
O=C1c2n[nH]c(-c3cc(F)ccc3O)c2[C@H](c2ccc(Cl)cc2)N1C1CCOCC1 (single isomer, unassigned) [Compound 11]	1000 to 10000 nM
O=C1c2n[nH]c(-c3cc(F)ccc3O)c2C(c2ccc(C(F)(F)F)cc2)N1C1CCOCC1 (racemic) [Compound 13, rac-3-(5-fluoro-2-hydroxyphenyl)-5-(tetrahydro-2H-pyran-4-yl)-4-(4-(trifluoromethyl)phenyl)-4,5-dihydropyrrolo[3,4-c]pyrazol-6(2H)-one]	1000 to 10000 nM
O=C1c2n[nH]c(-c3cc(F)ccc3O)c2C(c2ccc(Cl)cc2)N1C1CCOCC1 (racemic) [Compound 10, Rac-4-(4-chlorophenyl)-3-(5-fluoro-2-hydroxyphenyl)-5-(tetrahydro-2H-pyran-4-yl)-4,5-dihydropyrrolo[3,4-c]pyrazol-6(2H)-one]	1000 to 10000 nM
CC(=O)N1CCC(N2C(=O)c3n[nH]c(-c4cc(C)ccc4O)c3C2c2ccc(C(F)(F)F)cc2)CC1 (racemic) [Compound 5, Rac-5-(1-acetylpiperidin-4-yl)-3-(2-hydroxy-5-methylphenyl)-4-(4-(trifluoromethyl)phenyl)-4,5-dihydropyrrolo[3,4-c]pyrazol-6(2H)-one]	100 to 1000 nM

The molecules below were run on ICH mice (assay: MRI lesion, hematoma and perihematomal edema volume in intracerebral hemorrhage (ICH) mouse model). Details: at 3 days after ICH, brain MRI, vs vehicle.
Assay type: in vivo
Description: The intracerebral hemorrhage (ICH) model in mice was used to illustrate the protective benefits of the compounds of this disclosure, and FIG. 1 depicts the procedure in preparing this model. ICH was induced in C57 B/L6 male mice by the injection of an autologous blood or collagenase as previously described (Lauer et al., Circulation 124: 1654-1662 (2011); Rynkowski et al., Nat. Protoc. 3:122-128 (2008)). Mice were anesthetized using isoflurane inhalation and fixed on a stereotactic frame. A burr hole was drilled on the right side of the skull at 2.3 mm lateral to the midline and 0.5 mm anterior to the bregma. For the autologous blood model, 30 μl of non-heparinized blood was withdrawn from the angular vein. The first 5 μl blood was injected at a depth of 3 mm beneath the hole, and the rest 25 μl blood were injected at 3.7 mm beneath the hole with a rate of 1 μl/min. In the collagenase model, 0.038 U of the bacterial collagenase (in 0.5 μl saline) was infused to the striatum (0.5 mm anterior, 2.3 mm right lateral, and 3.5 mm deep relative to bregma) at a speed of 0.5 μl/min. Mice on the sham control were injected with an equal volume of saline. Throughout the procedure, the body temperature was maintained at 37° C. with a homeothermic blanket. After the surgery, mice were under observation with free access to food and water. […]
The total lesion volume was measured on the 7T small-animal MM scanner (Bruker, Corp., USA) as described (Li et al., 2017). The T2-weighted water imaging was recorded with following parameters (repetition time (TR)=4500 ms, echo time (TE)=65.5 ms, field of view (FOV)=28×28 mm^2, image matrix=256×256, at 0.5-mm slice thickness). […] The volumes were manually outlined and calculated by multiplying the sum of the volume by the distance between sections (0.5 mm) using MIPAV software. PHE volumes were calculated as total lesion volume minus hematoma volume. MRI data were analyzed by two investigators blinded to experimental groups.

SMILES	peri-hematomal edema
O=C1c2n[nH]c(-c3ccccn3)c2C(c2ccc(Cl)cc2)N1C1CCOCC1 (racemic) [Comp14]	significantly reduced

Same assay, conditions: brain MRI, vs vehicle

SMILES	hematoma size
O=C1c2n[nH]c(-c3ccccn3)c2C(c2ccc(Cl)cc2)N1C1CCOCC1 (racemic) [Comp14]	no difference
